Here are results for two molecules from US20070254891A1, “Crystalline forms of 4-(2-fluorophenyl)-6-methyl-2-(piperazin-1-yl)thieno[2,3-d]pyrimidine” (Dynogen Pharmaceuticals, Inc., priority 2006, published 2007).

Where two headings read alike, the source gives them in different places.

What is called pKa is the negative logarithm of the acid dissociation constant. The solubility is how much of the substance goes into solution per volume. One may read the logP as the decadic logarithm of the partition coefficient of the neutral form, usually between octanol and water. Low readings indicate a more hydrophilic compound, high ones a more lipophilic compound. The term logD denotes the decadic logarithm of the distribution of all forms, ionised or not, between an organic phase and buffer at a given pH. Read a low logD as a more hydrophilic compound.

Format in all cases: physicochemical
The nature of data set [1]: pKa determination (Sirius GlpKa, potentiometric and UV). The procedure:
pKa was measured on a Sirius GlpKa instrument equipped with a D-PAS attachment. A UV measurement was taken when the sample was in an aqueous solution and a potentiometric was taken when the sample was in a MeOH:H2O mixture. Measurements were taken at 25° C. The titration media was ionic strength adjusted with 0.15M KCl. Values determined from potentiometric measurements in the MeOH:H2O mixtures were corrected to 0% co-solvent via a Yasuda-Shedlovsky extrapolation. The data was refined using Refinement Pro software version 1.0. Prediction of pKa values was made using ACD pKa prediction software Ver 8.

Data set [2] can be described thus: Aqueous solubility with pH measurement. The following applies: water; for solubility at 24 h: 25 °C, thermodynamic from solid. The procedure: Each sample was suspended in 0.25 ml of solvent (water) in an amount effective to produce a maximum final concentration of greater than or equal to about 10 mg/ml of the parent free form of the compound (i.e., adding excess sample to account for the weight of the salt). […] The filtrate was then diluted down 101 times.

Data set [3] in a line: 10 week stability study at 40° C./75% RH and 60° C./75% RH, light and dark. The procedure:
(§1) Purity analysis was performed on an Agilent HP1100 system equipped with a diode array detector and using Chemstation V9 software. Gradient, Reverse Phase methods (duration approximately 40 minutes) were used in a HPLC1 system. A Thermo-Electron Corporation HyPurity C18 5 um 150×4.6 mm column was used at 25° C. Test samples were made-up of 0.2 mg/ml of the compound in acetonitrile:water (1:1 v/v). 10 μl of sample was injected into the column. The flow rate through the column was 1 ml/min and the detection wavelength, bandwidth was 254,8 nm. Phase A was 0.1% phosphoric acid in water and Phase B was 0.1% phosphoric acid in acetonitrile. The mobile phase timetable is shown below in Table 2.
Samples of Form I and II were tested at 40° C./75% RH and 60° C./75% RH in both light and dark conditions for up to 10 weeks. As the samples were located in temperature/humidity control chambers, the exposure to light was limited to normal laboratory light conditions with artificial light and some winter daylight through the windows.
Approximately 100 mg of each sample was weighed into plastic weighing boats and spread out to form an even thin layer for each of the temperature/humidity/light conditions, as shown in Table 6. The dark samples were protected from exposure to light by wrapping them in aluminum foil. The foil was pierced to allow exposure to humidity.
Time points chosen for HPLC analysis during the stability study were T=0, 1, 2, 5 and 10 weeks. At 10 weeks, the samples were analyzed using XRPD, DSC and polarized light microscopy.

A short description of data set [4]: Gravimetric vapor sorption (GVS). The method, then: GVS was used to determine the amount of water adsorbed by a sample. Briefly, samples were run on a Hiden IGASorp moisture sorption analyzer running CFRSorp software. Sample sizes were typically 10 mg. A moisture adsorption desorption isotherm was performed as outlined below in Table 3 (2 scans giving 1 complete cycle). Samples were loaded/unloaded at typical room humidity and temperature (40% RH, 25° C.). Samples were then analyzed by XRPD after GVS analysis, e.g., to determine whether any structural changes took place after adsorption of water. The standard isotherm was performed at 25° C. at 10% RH intervals over a 0-90% RH range.

Data set [5] in a line: Storage at 40° C./75% RH under ambient light (XRPD, HPLC purity, colour). The method, then: as §1
Form I was characterized by pKa, LogP, LogPion and LogD determination and prediction, XRPD before and after storage at 40° C./75% RH for 4 weeks, PLM, DSC and TGA, ^1HNMR, solubility in water with pH measurement, HPLC purity before and after storage at 40° C./75% RH for 4 weeks, water content, GVS with XRPD and purity analysis after measurement, and VT-XRPD.
Form II has been characterized using XRPD before and after storage at 40° C./75% RH for 3 weeks, PLM, DSC and TGA, Solubility in water with pH measurement, HPLC purity, Water content, GVS with XRPD analysis after measurement, and VT-XRPD.

A short description of data set [6]: LogP / LogPion / LogD by potentiometric titration (octanol:ISA water). The procedure:
LogP was determined using a potentiometric titration on a Sirius GlpKa instrument using three ratios of Octanol:ISA water to generate Log P, Log Pion, and Log D values. The data was refined using Refinement Pro software version 1.0. Predictions of LogP were made using ACD Ver 8 and Syracuse KOWWIN Ver 1.67 software.

The nature of data set [7]: Accelerated light stability study (Atlas Suntest CPS+ light box). The procedure:
as §1
Accelerated Light stability experiments were conducted using an Atlas Suntest CPS+light box. The light exposure was set to 550 W/m^2 and the run time was set to 168 hours (1 week). The chamber temperature and black standard temperature (which indicates how hot the test samples will become) were set to 25° C. The actual temperature in the sample chamber was 40° C.
Form I and II were assessed using an Atlas Suntest CPS+ light box to determine the effect of their exposure to light over a period of 168 hours (1 week). The light exposure was set to 550 W/M^2. Samples were weighed into either open weighing boats covered by pyrex glass beakers, glass vials with open tops (no lid), or glass vials covered in Aluminum foil. In all instances, the material was spread out into an even, thin layer.

Data set [8] is described as follows: Variable temperature XRPD (VT-XRPD). The settings on record: heating; irreversible; hydrochloride. The procedure: Samples run under ambient conditions were prepared as flat plate specimens using powder without grinding unless otherwise stated. Approximately 1-2 mg of the sample was lightly pressed on a glass slide to obtain a flat surface. Samples run under non-ambient conditions (VT-XRPD) were mounted on a silicon wafer with heat conducting compound. The sample was then heated to the appropriate temperature at about 20° C./minute and subsequently held isothermally for about 1 minute before data collection was initiated.
Three samples were studied using variable temperature XRPD (VT-XRPD): Form I as received, substantially pure Form I as prepared in Example 3, and substantially pure Form II as prepared in Example 3. VT-XRPD studies were initially carried out on substantially pure Form I as prepared in Example 3 with measurements at 25° C., 50° C., 80° C., 150° C., 220° C., 225° C., 250° C. and cooling to 29° C. Prior to measurement of the last XRPD pattern, the material was crushed due to the growth of large crystals. An overlay of the XRPD patterns can be found in FIG. 4A.
An experiment was also carried out on Form I as received, with measurements at 26° C., 50° C., 150° C., 200° C., 210° C., 220° C., 230° C. and cooling to 27° C. An overlay of the XRPD patterns can be found in FIG. 4B. […] (see peak at ˜14.7 2θ). […]

The mark [9] stands for this setting: 4 weeks at 40° C./75% RH, ambient light.

Regarding `Cc1cc2c(-c3ccccc3F)nc(N3CCNCC3)nc2s1.Cl` [Form I, 4-(2-fluorophenyl)-6-methyl-2-(piperazin-1-yl)thieno[2,3-d]pyrimidine hydrochloride], the pKa was 8.64 in data set [1] (MeOH:H2O mixtures, extrapolated to 0% co-solvent, potentiometric determination in MeOH/water, Yasuda-Shedlovsky extrapolation, read-out: pKa (basic)) and 0.81 in data set [1] (aqueous solution, UV spectroscopy (D-PAS attachment), read-out: pKa of second basic centre). The “pH of the solubility sample” value in data set [2] (25° C., 24 hours, hydrochloride) came to 6.33. For the same molecule, the solubility at 24 h in data set [2] (read-out: Aqueous solubility (as the hydrochloride)) stood at 2100 µg/mL; in data set [2] (read-out: Aqueous solubility (free base equivalent)) it was 1700 µg/mL. The Purity % in data set [3] (40° C./75% RH, Dark, 1 week) worked out at 99.9%; in data set [3] (40° C./75% RH, Dark, 2 weeks), 100%; in data set [3] (40° C./75% RH, Dark, 5 weeks), 100%; in data set [3] (40° C./75% RH, Dark, 10 weeks, hydrochloride), 99.9%; in data set [3] (40° C./75% RH, Light, 1 week) it was 99.9%; in data set [3] (40° C./75% RH, Light, 2 weeks), 100%. In addition, the Purity % worked out at 99.8% in data set [3] (40° C./75% RH, Light, 5 weeks, hydrochloride); 99.4% in data set [3] (40° C./75% RH, Light, 10 weeks, hydrochloride); 99.9% in data set [3] (60° C./75% RH, Dark, 1 week); 99.9% in data set [3] (60° C./75% RH, Dark, 2 weeks, hydrochloride); 100% in data set [3] (60° C./75% RH, Dark, 5 weeks); 100% in data set [3] (60° C./75% RH, Dark, 10 weeks, hydrochloride). In addition, the Purity % turned out to be 99.8% in data set [3] (60° C./75% RH, Light, 1 week); 99.8% in data set [3] (60° C./75% RH, Light, 2 weeks, hydrochloride); 99.5% in data set [3] (60° C./75% RH, Light, 5 weeks, hydrochloride); 99.4% in data set [3] (60° C./75% RH, Light, 10 weeks, hydrochloride); 100% in data set [3] (time point 0 weeks, hydrochloride). Besides, the “Yellow coloration of the surface (visual inspection)” value in data set [3] (after 10 weeks, both storage conditions) is “greatest”. The “Stability as indicated by the HPLC data” value in data set [3] (up to 10 weeks, 40° C./75% RH and 60° C./75% RH) was “stable to ambient light levels as well as elevated temperature and humidity”. Further, in data set [4] (after one adsorption/desorption cycle), the “XRPD reanalysis after GVS” value is reported as “did not show any change”. Moreover, in data set [4] (between 0 and 90% RH, single cycle, 25° C., hydrochloride), the “GVS total weight increase” value stood at 5.0%. The GVS weight increase entry in data set [4] (between 20% and 30% RH) was “about 4.8%”. Besides, the “GVS weight increase, equivalent water” value in data set [4] (between 20% and 30% RH) is 1.0 moles of water. For the same molecule, the “Colour of material surface after storage” value in data set [5] (setting [9]) is given as “gone yellow”. The “HPLC purity after storage” value in data set [5] (setting [9]) is listed as 99.0%. Besides, in data set [5] (40° C./75% RH for four weeks), the “XRPD pattern after storage” value is “unchanged”. The molecule also came in with a LogPion in data set [6] (0.15M KCl(Aq) / 1-octanol) of 1.41. For the same molecule, in data set [6] (1-octanol / 0.15M KCl (aq), 0.15M KCl(Aq) / 1-octanol), the logP worked out at 3.96. The molecule further showed a logD in data set [6] (octanol/ISA water, pH 7.4) of 2.72. For the same molecule, the “Purity after 1 week light exposure” value in data set [7] (20 ml glass vial covered in Al foil with loose lid (control)) came out at 99.9; in data set [7] (20 ml glass vial, 550 W/m^2, 168 hours, hydrochloride), 77.8; in data set [7] (open weighing boat, 550 W/m^2, 168 hours, hydrochloride) it was 79.4. Further, the “HPLC purity after accelerated light study” value in data set [7] (one week, FIGS. 6A/6B (open weighing boats), hydrochloride) is 79.4%.

In the case of `Cc1cc2c(-c3ccccc3F)nc(N3CCNCC3)nc2s1.Cl` [Form III, 4-(2-fluorophenyl)-6-methyl-2-(piperazin-1-yl)thieno[2,3-d]pyrimidine hydrochloride], the “Temperature of conversion into Form II” value in data set [8] was 200-220 °C.
